Laboratory results taken from PubChem BioAssay (NCI).
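Results reflect a 48-hour exposure of cells in 96-well plates to compound at five concentrations. At the TGI there is no net growth.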

Assays:
Test in all cases: DTP human tumour cell line panel, 48 h
MCF7 breast = system: MCF7 breast
OVCAR-5 ovarian = system: OVCAR-5 ovarian
ACHN renal = system: ACHN renal
MDA-MB-231 breast = system: MDA-MB-231 breast
NCI-H23 lung = system: NCI-H23 lung
HCT-116 colon = system: HCT-116 colon
SK-OV-3 ovarian = system: SK-OV-3 ovarian
SNB-75 CNS = system: SNB-75 CNS
HOP-62 NSCLC = system: HOP-62 NSCLC
A549 NSCLC = system: A549 NSCLC
K-562 leukemia = system: K-562 leukemia
CCRF-CEM leukemia = system: CCRF-CEM leukemia

SMILES | TGI (MCF7 breast) [µM] | TGI (OVCAR-5 ovarian) [µM] | TGI (ACHN renal) [µM] | TGI (MDA-MB-231 breast) [µM] | TGI (NCI-H23 lung) [µM] | TGI (HCT-116 colon) [µM] | TGI (SK-OV-3 ovarian) [µM] | TGI (SNB-75 CNS) [µM] | TGI (HOP-62 NSCLC) [µM] | TGI (A549 NSCLC) [µM] | TGI (K-562 leukemia) [µM] | TGI (CCRF-CEM leukemia) [µM]
c1ccc([P+](CCNCCNCC[P+](c2ccccc2)(c2ccccc2)c2ccccc2)(c2ccccc2)c2ccccc2)cc1 | > 100 | > 100 | > 100 | > 100 | > 100 | > 100 | > 100 | > 100 | > 100 | > 100 |  | 
Cc1ccc(-c2cc(N)n(-c3nc4c([nH]3)c(=O)n(C)c(=O)n4C)n2)cc1 | > 100 | > 100 | 10.7 | 27.8 | 28 | 15.9 | 16.1 |  | 16.4 | > 100 | > 100 | > 100
Nc1nc2ncc(SCc3ccc(C(=O)NC(CCC(=O)O)C(=O)O)cc3)cc2c(=O)[nH]1 (stereo unspecified) | > 100 | > 100 | > 100 |  | > 100 | > 100 | > 100 |  | > 100 | > 100 | > 100 | 
O=C1CC2(C[C@@H]3CCCCCCCCC[C@@H](C3)C2)N1 (stereo partly specified) |  | 29.6 | 29.3 |  | 31.3 | 33.6 | 28.4 | 20.6 | 32.8 | 38.4 | 55.1 | 37.6
N#CCCN(c1ccc(C=Nc2cccc([N+](=O)[O-])c2)cc1)S(=O)(=O)c1ccccc1 |  |  |  |  | > 100 | > 100 | > 100 | > 100 | > 100 | > 100 | > 100 | > 100
CCOC(=O)c1c(NC(=O)c2ccccc2)sc2c1CCCC2 | > 100 | > 100 | > 100 | > 100 | > 100 | > 100 | > 100 | > 100 |  |  | > 100 | > 100
COc1ccc2nc(-c3ccc(OCc4ccccc4)cc3)ccc2c1 |  | > 100 | > 100 |  | > 100 | > 100 | > 100 | > 100 | > 100 | > 100 | > 100 | > 100
CCOC(=O)CCC(NC(=O)c1ccc(OCc2nc3cc(C(F)(F)F)ccc3nc2-c2ccccc2)cc1)C(=O)OCC (stereo unspecified) | 19.4 | > 100 | > 100 | > 100 | > 100 | > 100 | > 100 | 52.1 |  | > 100 | > 100 | > 100
CC1C(c2cc(C(C)(C)C)c(O)c(C(C)(C)C)c2)c2cc3c(cc2OC1N1CCOCC1)OCO3 (stereo unspecified) | > 100 | > 100 | 22.7 |  | 94.9 | 30.7 |  |  | 33.4 | 48 | > 100 | > 100
COC1O[C@H]2CCN(C(=O)OCc3ccccc3)[C@H]2[C@H]1OCc1ccccc1 (stereo partly specified) |  | > 100 | > 100 |  | > 90.5 | > 100 | 55.3 | > 100 | > 100 | > 100 | > 100 | > 100
Cc1ccc2c(c1C)CC1(Cc3c(ccc4c3CCC4)C1=O)C2=O (stereo unspecified) | > 100 | > 100 | > 100 | > 100 | > 100 | > 100 | > 100 | > 100 |  | > 100 | > 100 | > 100
CC12CC(c3ccccc3O1)C(C(=O)Nc1ccc(F)cc1)C(=O)N2 (stereo unspecified) | > 100 | > 100 | > 100 |  | > 100 | > 100 | > 100 |  | > 100 | > 100 | > 100 | > 100
Cc1cc(-c2nc3ccccc3s2)ccc1NS(=O)(=O)O |  | > 100 | > 100 | > 100 | > 100 | > 100 | > 100 | > 100 | > 100 | > 100 | > 100 | > 100
Cc1c(Cl)ccc2c(=O)c3cccc(CC(=O)O)c3oc12 | > 100 |  | > 100 | > 100 | > 100 | > 100 |  |  | > 100 | > 100 | > 100 | > 100
O=C1O[C@@H](c2ccccc2)C[C@@H]1CN1CCOCC1 |  | > 100 | > 100 |  | 64.1 |  | > 100 | > 100 | > 100 | > 100 | > 100 | > 100
O=C1CCCN(c2ccccc2)N1 |  | > 100 | > 100 |  |  | > 100 | > 100 | > 100 | > 100 | > 100 | > 100 | 
Cc1c(Cl)cccc1NC(=O)C(=O)C1C(=O)CC(C)(C)CC1=O |  | > 100 | > 100 |  | > 100 | > 100 | > 100 | > 100 | > 100 | > 100 | > 100 | > 100
O=C(Cc1nc2ccc(C(=O)c3ccccc3)cc2[nH]c1=O)C(=O)Nc1ccc(Br)cc1 | > 100 | > 100 | > 100 | > 100 | > 100 | > 100 | > 100 | > 100 | > 100 | > 100 | > 100 | 
CCOC(=O)c1cc(=C2\CCN(CC(C)CC)C2=S)/c(=C(/O)CC)[nH]1 (stereo unspecified) | 61 |  | 28.9 | 31.8 | 33.6 | 28.7 | 48.4 | 36.9 |  | > 100 | 37.8 | 21.7
CC(C)C(Sc1nc(-c2ccccc2)c(-c2ccccc2)[nH]1)C(=O)NNC(=S)Nc1ccccc1 (stereo unspecified) |  | 32.6 | 87 |  | 37.2 | 42.2 | 45.3 | 53.6 | 39.8 | 60.9 |  | 38
C[N+](C)(C)CC(=O)N/N=c1\cc(C(=O)Nc2ccc(N=O)cc2C#N)oc2cc(O)ccc12 |  | > 100 | > 100 |  | > 100 | > 100 | > 100 | > 100 | > 100 | > 100 | > 100 | > 100
